Source: patent US20140336182A1, “Aurora Kinase Modulators and Method of Use” (Amgen Inc., priority 2013, published 2014)
Like-named read-outs stand apart in the source and are kept apart here.

Experiments:
[1] = test system: HCT116 xenografts, a human colon carcinoma model; assay: HCT116 xenograft model, tumor growth inhibition; assay type: in vivo, athymic nude mice; conditions: mice, p.o.
Description: Compounds of the present invention were evaluated in HCT116 xenografts, a human colon carcinoma model. […] These cells were grown as subcutaneous xenografts in female HSD (Harlan Sprague Dawley) athymic nude mice. Mice were implanted subcutaneously with 2×10^6 cells in matrigel on day 0. Treatment was initiated on day 10 with compounds of the invention at the indicated dosage p.o for 2 consecutive-days per week (intermittent schedule, such as 2 days on—5 days off) or 7-days (continuous schedule) per week, for a selected number of weeks. For example, in one study, animals were dosed with selected compound samples BID on an intermittent dosing paradigm of two days on and then 5 days off per week, for four weeks (four dosing cycles) at 15, 7.5, and 3.75 mg/kg. Tumor growth inhibition and body weights were measured throughout the study and compared to the vehicle control group. All groups were provided nutritional supplements on a daily basis throughout the study to maintain body weight. Terminal neutrophil counts were taken at the end of this study. Measures were made by ANOVA followed by Scheffe post hoc test using StatView software v5.0.1.
10 Flasks containing a total of 7.68×10^8 HCT 116 tumor cells were harvested for tumor cell implantation. HCT 116 cells were re-suspended to a cell concentration of about 2×10^7 cells/ml in serum-free McCoys 5A media+50% matrigel. Cell viability was measured to be about 99.3%.
Female Athymic Nude mice approximately 14 weeks of age (Harlan Sprague Dawley) were used for the experiment. […] On Day 9, tumor-bearing mice were measured and randomized into five groups (n=10). […] During the dosing period, mouse tumor volumes were measured with a digital caliper and weighed twice per week. Tumor volumes were calculated as follows: Tumor Volume (mm^3)=[(W^2 X L)/2] where width (W) is defined as the smaller of the 2 measurements and length (L) is defined as the larger of the 2 measurements.

[2] = test system: HeLa cells; assay: HeLa cell 24 hr ploidy assay (DNA content); assay type: cell-based; conditions: 4N ploidy, average, read-out: 24h_4NPloidy EC50_IP (uM Avg)
Outline: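 HeLa cells (1×10^4/well, MEM+10% FBS) cultured 24 h, treated with serially diluted compounds (0.25% DMSO final), then fixed, permeabilized and stained with Hoechst 33342 (0.5 ug/ml). Imaging quantified % 4N and >4N cells; EC50 IP and EC50 transit derived from dose curves.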

[3] = target: T1, AuroraA-TPX2 (Homo sapiens, UniProt O14965); assay: AuroraA-TPX2 Homogeneous Time Resolved Fluorescent (HTRF) kinase assay
T1 sequence (O14965 133-383 limits assumed): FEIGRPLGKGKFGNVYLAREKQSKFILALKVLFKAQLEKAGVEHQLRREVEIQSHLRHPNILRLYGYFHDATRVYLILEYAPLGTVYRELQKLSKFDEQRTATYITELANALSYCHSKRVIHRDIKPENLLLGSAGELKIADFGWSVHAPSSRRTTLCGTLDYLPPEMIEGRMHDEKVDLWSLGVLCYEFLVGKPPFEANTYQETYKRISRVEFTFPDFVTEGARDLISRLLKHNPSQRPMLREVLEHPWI
T1 sequence (Q9ULW0 1-43 partner limits assumed): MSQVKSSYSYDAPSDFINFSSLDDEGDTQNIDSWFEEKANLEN

[4] = target: T2, AuroraB (Homo sapiens, UniProt Q96GD4); assay: AuroraB Homogeneous Time Resolved Fluorescent (HTRF) kinase assay; assay type: biochemical; conditions: average; read-out: AurB_IC50_IP (uM Avg)
T2 construct: 20 μL of AuroraB FL H is for a final volume of 41 μL; His

[5] = Solubility in DMSO (observation in the synthesis); assay type: physicochemical; conditions: DMSO at rt
Description: The reaction was cooled to rt. Hexane was added to induce the product to precipitate out of the reaction mixture. The resulting red solid was filtered with an aid of hexane. LCMS confirmed that the solid was the product. The product was purified by performing a column chromatography on silica gel using 60:40 CH2Cl2:(90:10:1 CH2Cl2:MeOH:NH4OH). Yellow solid was obtained. LCMS confirmed product. […] MS Calcd for […]: [M]=472. Found: [M+H]=473.

[6] = read-out: AurA_IC50_IP (uM Avg), average

T2 sequence (Q96GD4 whole entry): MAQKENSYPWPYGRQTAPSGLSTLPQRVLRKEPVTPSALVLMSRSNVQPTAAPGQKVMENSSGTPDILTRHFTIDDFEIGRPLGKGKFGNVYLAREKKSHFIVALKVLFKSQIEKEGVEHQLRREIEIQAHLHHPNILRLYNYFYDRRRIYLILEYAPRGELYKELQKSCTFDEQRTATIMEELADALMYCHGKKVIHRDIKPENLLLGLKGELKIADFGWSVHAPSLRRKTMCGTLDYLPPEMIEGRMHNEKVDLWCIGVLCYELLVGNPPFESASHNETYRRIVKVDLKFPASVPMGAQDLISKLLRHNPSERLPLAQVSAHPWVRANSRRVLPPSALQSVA

Compound | EC50 ([2]; Homo sapiens, HeLa, HeLa cells) [µM] | IC50 [4] [µM] | other results
COc1cnc2c(Oc3ccc(Nc4nnc(-c5ccc6c(c5)OCO6)c5ccccc45)cc3)ccnc2c1 [Example 165, 4-(1,3-benzodioxol-5-yl)-N-(4-((7-(methyloxy)-1,5-naphthyridin-4-yl)oxy)phenyl)-1-phthalazinamine] | 0.006 |  | inhibition of tumor growth ([1]; 2.5 mg/kg 2-day dosing scheduling BID): 63%
COc1cnc2c(Oc3ccc(Nc4nnc(-c5ccc(Cl)cc5)c5ccccc45)cc3)ccnc2c1 [Example 160, 4-(4-chlorophenyl)-N-(4-((7-(methyloxy)-1,5-naphthyridin-4-yl)oxy)phenyl)-1-phthalazinamine] |  |  | inhibition of tumor growth ([1]; 3.75 mg/kg 2-day dosing scheduling QD): 86%; EC50 ([2]; Homo sapiens, HeLa): 0.005 µM
COc1cnc2c(Sc3ccc(Nc4nnc(N5CCC(OC)CC5)c5ccccc45)cc3)ccnc2c1 [compound 520] | 0.004 | 0.017 | IC50 [3]: 0.027 µM
COc1ccc2c(Cc3ccc(Nc4nnc(-c5ccccc5)c5ccccc45)cc3)ccnc2c1 [Example 53, N-(4-((7-methoxyquinolin-4-yl)methyl)phenyl)-4-phenylphthalazin-1-amine] | 0.105 | 0.003 | IC50 [3, 6]: 0.153 µM
4-(4,5-dimethylthiophen-2-yl)-N-(4-(7-methoxy-1,5-naphthyridin-4-yloxy)phenyl)phthalazin-1-amine [Example 34] |  | 0.01 | IC50 [3, 6]: 0.013 µM; EC50 ([2]; HeLa cells): 0.062 µM
N-(5-(7-methoxy-1,5-naphthyridin-4-yloxy)pyridin-2-yl)-4-phenylphthalazin-1-amine [Example 54] |  | 0.02 | IC50 [3, 6]: 0.176 µM; EC50 ([2]; HeLa cells): 0.028 µM
COc1cnc2c(Nc3cnc(Nc4nnc(-c5ccccc5)c5ccccc45)nc3)ccnc2c1 [Example 36, N^5-(7-Methoxy-1,5-naphthyridin-4-yl)-N^2-(4-phenylphthalazin-1-yl)pyrimidine-2,5-diamine] |  |  | EC50 ([2]; Homo sapiens, HeLa): 0.326 µM; solubility in DMSO [5]: slightly soluble
COc1cnc2c(Sc3ccc(Nc4nnc(-c5ccccc5)c5ccccc45)cc3)ccnc2c1 [Example 207, N-(4-((7-(methyloxy)-1,5-naphthyridin-4-yl)thio)phenyl)-4-phenyl-1-phthalazinamine] | 0.005 |  | inhibition of tumor growth ([1]; 5.0 mg/kg 2-day dosing scheduling QD): 67%
Fc1cc(Nc2nnc(-c3ccc(Cl)cc3)c3ccccc23)ccc1Oc1ccnc2ccccc12 [compound 244] | 0.04 | 0.003 | IC50 [3]: 0.048 µM
O=c1ccc2nccc(Oc3ccc(Nc4nnc(-c5ccc(Cl)cc5)c5ccccc45)cc3)c2[nH]1 [compound 569] | 0.115 |  | 
Cc1nc(-c2nnc(Nc3ccc(Oc4ccnc5cc(C#N)ccc45)cc3)c3ccccc23)sc1C [compound 277] | 0.035 |  | 
CCCc1cc(-c2ccccc2)nnc1Nc1ccc(Oc2ccnc3cc(C#N)ccc23)cc1 [compound 196] | 0.342 |  | 
